We go through three compounds from patent EP1721613A1, “Hesperidin for the treatment of epilepsy, migraine, schizophrenia, depression and drug abuse” (priority 2005, dated 2006).

“Also recorded” adds a separate entry of the source.

Experiment [1] concerns Pyramidenzellen des Hippokampus. As to the kind of experiment: Hippocampal slice ex vivo after 7 days of in vivo dosing: provocation with 4-aminopyridine. The note with it: 500 mg/kg daily over 7 days in vivo, compared with placebo. The arrangement: species or system Ratte. The text has this: Wirkungen von Hesperidin und Hesperetin auf die Erregbarkeit der Pyramidenzellen wurden im Hippokampus-Schnittpräparat der Ratte bestimmt. Die Analyse der Wirkungen erfolgte auf drei Ebenen. Zunächst wurde anhand der Applikation von Einzelreizen die normale Erregbarkeit überprüft und anschließend nach einer sog. "Theta-burst-Stimulation" die Auswirkungen auf die Langzeitpotenzierung gemessen. Im nächsten Schritt wurde versucht, die Wirkung von Krampf auslösenden Substanzen zu antagonisieren. […]
Dieselbe Versuchsanordnung wurde letztendlich noch einmal nach in vivo Applikation beider Substanzen in einer repetitiven Dosierung von 500 mg/kg täglich über 7 Tage im Vergleich zu Placebo angewandt (sog. "ex vivo" Design). Dabei sollte überprüft werden, ob eine repetitive Gabe zur Erregbarkeitsveränderungen der Pyramidenzellen des Hippokampus führt. […] Dieses Ergebnis ist auch ein Hinweis darauf, dass in vivo neben dem im Darm entstehenden Hesperetin auch genügend wirksames Hesperidin das Gehim erreicht. Gleichzeitig wird dadurch nochmals bestätigt, dass Hesperidin und Hesperetin ein unterschiedliches Wirkprofil haben.

Experiment [2] deals with Pyramidenzellen im Hippokampus-Schnittpräparat. As to the kind of experiment: Hippocampal slice in vitro: antagonism of the 4-aminopyridine-induced change of excitability. Type of experiment: cell-based, Ratte. The note with it: superfused together with 4-Aminopyridin. The text has this:
(§1) Wirkungen von Hesperidin und Hesperetin auf die Erregbarkeit der Pyramidenzellen wurden im Hippokampus-Schnittpräparat der Ratte bestimmt. Die Analyse der Wirkungen erfolgte auf drei Ebenen. Zunächst wurde anhand der Applikation von Einzelreizen die normale Erregbarkeit überprüft und anschließend nach einer sog. "Theta-burst-Stimulation" die Auswirkungen auf die Langzeitpotenzierung gemessen. Im nächsten Schritt wurde versucht, die Wirkung von Krampf auslösenden Substanzen zu antagonisieren. In einer dritten Versuchsserie wurde die Substanz eine Woche lang appliziert und dann "ex vivo" die Änderung der Erregbarkeit auf eine Provokation mit der Krampf auslösenden Substanz 3-Aminopyridin (3-AP) gemessen.
(§2) Für die Durchführung dieser Studien wurden 30 erwachsene männliche CD-Ratten verwendet. Die Isolation des Hippokampus erfolgte an äthemarkotisierten und anschließend exsanguinierten Tieren.
Das Experiment selbst wurde in einer sog. "Base Unit" mit Haas Top" (Firma Medical Systems Corp., USA) bei 35 Grad Celsius durchgeführt. Der mit Hilfe peristaltischer Pumpen (Infusomat B. Braun Melsungen AG) superfundierte Hippokampus-Schnitt lag auf einem Stück Gaze. Eingeleitetes Carbogen hielt die erforderliche Sauerstoffzufuhr der Lösung aufrecht. Die Durchflussgeschwindigkeit betrug 200 ml/h. […]

For experiment [3], the system named is Fischer-344 Ratten. Kind of experiment: Tele-Stereo-EEG (changes of EEG frequencies in freely moving rats). Type of experiment: in vivo, Ratte. Here is the method:
Die Veränderungen der EEG-Frequenzen nach intraperitonealer Gabe von Salzlösung (Kontrolle) bzw. verschiedener Dosen von Hesperidin (10 bis 300 mg/kg Körpergewicht sowie oral 500 mg/kg) wurden bestimmt. Ebenso wurden verschiedene Dosierungen von Hesperetin (80-320 mg/kg i.p. sowie 500 mg/kg oral untersucht.
Die Untersuchungen wurden analog der durch W. Dimpfel beschriebenen Methode (Dimpfel W Preclinical data base of pharmaco-specific rat EEG fingerprints (Tele-Stereo-EEG). Eur J Med Res (2003) 8: 199-207) folgendermaßen durchgeführt: Zwölf männlichen erwachsenen Fischer-344 Ratten (Tag-Nacht konvertiert) wurden im Alter von 6 Monaten 4 bipolar konzentrische Elektroden zusammen mit einem Mikrostecker auf einer gemeinsamen Basisplatte implantiert. Der Stecker diente der Aufnahme eines 4-Kanal-Senders zur telemetrischen Übertragung der aus frontalem Kortex, Hippokampus, Striatum und Formatio Reticularis abgeleiteten Feldpotentiale. Die Signale wurden auf einem Computer System (Software "EEG-Analyse", Betriebssystem OS Science, Laborrechner "LabTeam" der Firma MediSyst, Linden, DE) in Echtzeit einer Fast-Fourier-Transformation unterworfen und die Leistungsdichtespektren jeweils über 60 Minuten gemittelt. Die Unterteilung der Spektren in 6 verschiedene Frequenzbereiche erlaubte die Erfassung pharmako-spezifischer Veränderungen in Bezug auf die jeweils vor Applikation gemessenen Vorwerre innerhalb dieser Frequenzbänder.
Zum Applikationsprotokoll der Substanzen: die Substanzen wurden i.p. 45 Minuten nach Beginn der Messungen (Vorwert) injiziert. Fünf Minuten später wurden die Messungen wieder gestartet, mindestens über die nächsten 5 Stunden kontinuierlich analysiert und in 60-minütigen Perioden zusammengefaßt. Die Testsubstanzen wurden in einer Dosierung von 10 bis 500 mg/kg appliziert. Die experimentelle Serie wurde mit der Injektion von Salzlösung (Kontrolle), die zu keiner auffälligen Änderung führte, begonnen.
Der statistische Vergleich der Versuche zu den Ergebnissen, die nach Gabe von Salzlösung gemessen wurde, erfolgte mit Hilfe einer multivariaten Analyse nach Ahrens und Läuter (siehe H. Ahrens, J. Läuter "Mehrdimensionale Varianzanalyse" (1974), Akademie Verlag, Berlin) auf der Basis der Veränderungen innerhalb der einzelnen Frequenzbänder in allen Hirnregionen als Variablen.

Experiment [4] has as its system Pyramidenzellen im Hippokampus-Schnittpräparat. Kind of experiment: Hippocampal slice in vitro: population spike after single stimuli and long-term potentiation after theta-burst stimulation. The note with it: n=6 slices; for Langzeitpotenzierung durch TBS: theta-burst stimulation, 5 bis 60 µM for Hesperidin. Type of experiment: cell-based, Ratte.
Description: as §1, §2
Das Experiment selbst wurde in einer sog. "Base Unit" mit Haas Top" (Firma Medical Systems Corp., USA) bei 35 Grad Celsius durchgeführt. Der mit Hilfe peristaltischer Pumpen (Infusomat B. Braun Melsungen AG) superfundierte Hippokampus-Schnitt lag auf einem Stück Gaze. Eingeleitetes Carbogen hielt die erforderliche Sauerstoffzufuhr der Lösung aufrecht. Die Durchflussgeschwindigkeit betrug 200 ml/h.
Die Stimulation der CA2-Region (Schaffer-Kollateralen) erfolgte unter Verwendung eines Reizgenerators (Laborcomputer Labteam der Fa. MediSyst GmbH, Linden, DE) über eine Isoliereinheit mit Hilfe einer bipolar konzentrischen Stahlelektrode (Rhodes Medical Systems, USA. Die Impulsbreite betrug 200 µs, die Stromstärke konstant 200 µA. Der Reizgenerator löste im Abstand von jeweils 20 Sekunden 4 Einzelreizungen aus, die im Schnitt insgesamt 4 Populationsspikes evozierten. Die Ableitung der Antwort erfolgte in der […] Region. Das System mittelte die Reizantwort der 4 Spike-Amplituden.
Dabei wurde der Schnitt zunächst mit Kontrolllösung superfundiert. […]

Experiment [5] deals with autosomaler dominanter nocturner Frontallappenepilepsie. As to the kind of experiment: Therapeutic trial in one patient with drug-resistant epilepsy. Type of experiment: in vivo, Patientin. The text has this:
Um das Konzept auch am Patienten zu überprüfen, wurde einer jungen unter autosomaler dominanter nocturner Frontallappenepilepsie leidenden Patientin, die selbst in Gegenwart von 3 Gramm unterschiedlicher Antiepileptika weiterkrampfte (im Mittel 20 Anfälle pro Monat) täglich 1 Gramm Hesperidin abends vor dem Einschlafen oral über einen Zeitraum von 2 Monaten verabreicht. […] Das Ergebnis der Untersuchungen ist in Abb. 12 dokumentiert.

In the case of `COc1ccc([C@@H]2CC(=O)c3c(O)cc(O)cc3O2)cc1O` [Hesperetin], the “durch 4-Aminopyridin provozierte Erhöhung der Erregbarkeit (ex vivo)” value in experiment [1] is reported as “nicht jedoch in den mit Placebo oder Hesperetin behandelten Tieren”. The “Änderung der Erregbarkeit der Pyramidenzellen durch die Gegenwart von 4-Aminopyridin” value in experiment [2] was “nicht jedoch von Hesperetin vermindert”. Further, the “Veränderungen der elektrischen Hirnaktivität” value is “Zunahmen der delta und alpha2 Aktivität” in experiment [3] (320 mg/kg i.p., after 2 hours, frontal cortex) and “im niedrigen Dosisbereich dem nach Gabe von Hesperidin entsprach” in experiment [3] (i.p. single dose, low dose range). Besides, the “EEG-Muster im Vergleich zu Referenzmedikamenten (Diskriminanzanalyse)” value in experiment [3] (higher dose) is recorded as “dem klassischer Antikonvulsiva ähnlich”; in experiment [3] (low doses) it was “wie es für die Applikation von Mitteln gegen Migräne und Schizophrenie (Metoprolol bzw. Haloperidol und Risperidon) typisch ist”.

`Fc1ccc([C@@H]2CCNC[C@H]2COc2ccc3c(c2)OCO3)cc1` [Paroxetin, reference compound]: the “Langzeitpotenzierung durch TBS” value in experiment [4] was “unterdrückt die Langzeitpotenzierung”.

Regarding `COc1ccc([C@@H]2CC(=O)c3c(O)cc(O[C@@H]4O[C@H](CO[C@@H]5O[C@@H](C)[C@H](O)[C@@H](O)[C@H]5O)[C@@H](O)[C@H](O)[C@H]4O)cc3O2)cc1O` [Hesperidin, Hesperetin 7-rhamnoglucosid], the “Amplitude des Populationsspikes bei Einzelreizung” value in experiment [4] (single stimuli, 5 bis 60 µM) was “Unterdrückung der Pyramidenzellaktivität nach Einzelreizung; also recorded: Konzentrations-abhängigen Abfall der Amplitude des Populationsspikes”. Also, in experiment [4], the “Langzeitpotenzierung durch TBS” value is given as “Unterdrückung der Langzeitpotenzierung; also recorded: Konzentrations-abhängig unterdrückt”. In addition, the “durch 4-Aminopyridin provozierte Erhöhung der Erregbarkeit (ex vivo)” value in experiment [1] is “Unterdrückung der durch 4-Aminopyridin provozierten Erhöhung”. In experiment [2], the “Änderung der Erregbarkeit der Pyramidenzellen durch die Gegenwart von 4-Aminopyridin” value was “vermindert”. Moreover, the “Ausprägung des alpha1 Fokus im Frontallappen (Nachuntersuchung)” value in experiment [5] (1 Gramm daily orally for 2 months) is on record as “deutlich geringere Ausprägung des alphal Fokus im Frontallappen”. Also, the “Häufigkeit der Anfälle” value in experiment [5] (1 Gramm daily orally in the evening for 2 months, baseline on average 20 seizures per month under 3 g antiepileptics) is recorded as “um die Hälfte reduziert”. Moreover, the “Veränderungen der Leistungsdichte in den einzelnen Hirnregionen” value is given as “Zunahmen der alpha1 und beta Aktivität” in experiment [3] (20 mg/kg i.p.); “Zunahmen der elektrischen Leistung im alpha1 und beta Bereich” in experiment [3] (40 mg/kg i.p.); “generellen Abfall der elektrischen Leistung” in experiment [3] (300 mg/kg i.p., significant at least at P < 5%); “Abnahmen der elektrischen Leistung im delta, theta und alpha2 Bereich” in experiment [3] (80 und 160 mg/kg i.p., statistically significant pattern, seen over the 5 hours of the test). In addition, the “EEG-Muster im Vergleich zu Referenzmedikamenten (Diskriminanzanalyse)” value in experiment [3] (higher dose) is recorded as “dem nach Gabe klassischer Antidepressiva”; in experiment [3] (low doses) it was “wie es für die Applikation von Mitteln gegen Migräne und Schizophrenie (Metoprolol bzw. Haloperidol und Risperidon) typisch ist”.
